The values that follow come from paper PMC6151437, “Antibacterial Synthetic Peptides Derived from Bovine Lactoferricin Exhibit Cytotoxic Effect against MDA-MB-468 and MDA-MB-231 Breast Cancer Cell Lines” (Molecules : A Journal of Synthetic Chemistry and Natural …, 2017).

Bridge positions count the residues as written; N and C are the ends. Square brackets hold non-standard residues; d marks the D form. Peptide text beside a SMILES is read from it. I, II: the chains in the order shown. Ahx = NCCCCCC(=O)O

Test in assay [1]: not given
The source holds these as a separate data set.

With `N=C(N)NCCC[C@H](NC(=O)[C@H](Cc1c[nH]c2ccccc12)NC(=O)[C@H](CCC(N)=O)NC(=O)[C@H](Cc1c[nH]c2ccccc12)NC(=O)[C@H](CCCNC(=N)N)NC(=O)[C@@H](N)CCCNC(=N)N)C(=O)NCCCC[C@H](NC(=O)[C@H](CCCNC(=N)N)NC(=O)[C@H](Cc1c[nH]c2ccccc12)NC(=O)[C@H](CCC(N)=O)NC(=O)[C@H](Cc1c[nH]c2ccccc12)NC(=O)[C@H](CCCNC(=N)N)NC(=O)[C@@H](N)CCCNC(=N)N)C(=O)NCCCCCC(=O)N[C@@H](CSSC[C@H](NC(=O)CCCCCNC(=O)[C@H](CCCCNC(=O)[C@H](CCCNC(=N)N)NC(=O)[C@H](Cc1c[nH]c2ccccc12)NC(=O)[C@H](CCC(N)=O)NC(=O)[C@H](Cc1c[nH]c2ccccc12)NC(=O)[C@H](CCCNC(=N)N)NC(=O)[C@@H](N)CCCNC(=N)N)NC(=O)[C@H](CCCNC(=N)N)NC(=O)[C@H](Cc1c[nH]c2ccccc12)NC(=O)[C@H](CCC(N)=O)NC(=O)[C@H](Cc1c[nH]c2ccccc12)NC(=O)[C@H](CCCNC(=N)N)NC(=O)[C@@H](N)CCCNC(=N)N)C(N)=O)C(N)=O` (I: H-RRWQWRK[Ahx]C-NH2 / II: H-RRWQWRK[Ahx]C-NH2 / III: H-RRWQWR / IV: H-RRWQWR; amide I:7-III:C, II:7-IV:C; disulfide I:9-II:9), the minimum concentration with maximum (optimal) cytotoxic effect was determined as 22 µM. On to `CSCC[C@H](NC(=O)[C@H](CCCNC(=N)N)NC(=O)[C@H](Cc1c[nH]c2ccccc12)NC(=O)[C@H](CCC(N)=O)NC(=O)[C@H](Cc1c[nH]c2ccccc12)NC(=O)[C@H](CCCNC(=N)N)NC(=O)[C@@H](N)CCCNC(=N)N)C(=O)N[C@@H](CCCCN)C(=O)N[C@@H](CCCCN)C(=O)N[C@@H](CC(C)C)C(=O)NCC(=O)NCCCC[C@H](NC(=O)CNC(=O)[C@H](CC(C)C)NC(=O)[C@H](CCCCN)NC(=O)[C@H](CCCCN)NC(=O)[C@H](CCSC)NC(=O)[C@H](CCCNC(=N)N)NC(=O)[C@H](Cc1c[nH]c2ccccc12)NC(=O)[C@H](CCC(N)=O)NC(=O)[C@H](Cc1c[nH]c2ccccc12)NC(=O)[C@H](CCCNC(=N)N)NC(=O)[C@@H](N)CCCNC(=N)N)C(=O)NCCCCCC(N)=O` (I: H-RRWQWRMKKLGK[Ahx]-NH2 / II: H-RRWQWRMKKLG; amide I:12-II:C), for which, in assay [1], the concentration of maximum cytotoxic effect is 30 µM.
